According to patent US20230000842A1, “METHODS OF TREATING CARTILAGE DISORDERS THROUGH INHIBITION OF CLK AND DYRK” (SAMUMED, LLC, priority 2019, published 2023):

Assays:
CLK2 kinase = CLK2 kinase (Homo sapiens, UniProt P49760); test: CLK2 kinase activity assay (Z-lyte FRET); format: biochemical; details: Z-lyte Ser/Thr 6 peptide, 60 μM ATP, 1 h at room temperature;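 further: FRET read-out as coumarin to fluorescein emission ratio, unphosphorylated peptide as 0% and phosphorylated peptide as 100% controls, duplicate reactions, non-linear regression fit of dose-response curves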
Method: This is a non-radioactive assay using fluorescence resonance energy transfer (FRET) between coumarin and fluorescein to detect kinase activity which is represented as a ratio of coumarin emission/fluorescein emission.
The mixture was allowed to incubate with the representative compounds for one hour at room temperature. All reactions were performed in duplicate. Unphosphorylated (“0% Control”) and phosphorylated (“100% control”) forms of Ser/Thr 6 served as control reactions. Additionally, an 11-point dose-response curve of Staurosporine (1 μM top) was run to serve as a positive compound control.
After incubation, Development Reagent A was diluted in Development Buffer then added to the reaction and allowed to further incubate for one hour at room temperature.
Dose-response curves were generated and inhibitory concentration (IC50) values were calculated using non-linear regression curve fit in the Dotmatics' Studies Software (Bishops Stortford, UK).

[1] = system: primary human mesenchymal stem cells (hMSCs); test: Chondrogenesis screening using primary human mesenchymal stem cells; format: cell-based; details: Homo sapiens, Mesenchymal stem cells, hMSC chondrogenesis; for EC50: concentration required to induce 50% levels of chondrogenesis with TGF-β3 as positive control, read-out: Conc (nM) of 50% TGF-β3 activity; for Emax: maximum activity relative to TGF-β3 (10 ng/mL) positive control, read-out: Max. Activity as % TGF-β3 activity
Procedure, shortened: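 Derived values are EC50 for 50% chondrogenesis, maximal activity and the dose giving it. These come from nodule area in passage 3–6 primary hMSCs, expressed as fold change over the mean of 3 same-plate DMSO wells, 2–3 replicates per concentration. TGF-β3 served as positive control.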

[2] = system: MMP-3 levels in supernatant of chondrocytes stimulated with IL1-β; test: Chondrocyte protection assay compound screening (MMP-3 LANCE Ultra); format: cell-based, human; details: Homo sapiens, Chondrocyte, IL1-β 10 ng/mL overnight, 11-point curves from 3 μM to 0.05 nM; for Emax: read-out: Maximum % Inhibition
Procedure, shortened: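 Primary human chondrocytes (passage 2–5) in differentiation medium were stimulated with 10 ng/mL IL1-β for an overnight incubation at 37 °C. MMP-3 in 1:7-diluted supernatant was read by TR-FRET immunoassay against a standard curve, normalised to IL1-β-stimulated wells; EC50 and maximum % inhibition came from nonlinear regression.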

[3] = system: Wnt pathway activity (SW480 colon carcinoma cells stably expressing the Sp5-Luc reporter); test: Wnt pathway activity screening assay (Sp5-Luc reporter gene assay); details: Homo sapiens
CLK3 kinase = CLK3 kinase (Homo sapiens, UniProt P49761); test: CLK3 kinase activity assay (Z-lyte FRET); format: biochemical; details: Z-lyte Ser/Thr 18 peptide, 156 μM ATP, 1 h at room temperature;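 further: kinase activity read as coumarin/fluorescein emission ratio by FRET, unphosphorylated peptide as 0% and phosphorylated peptide as 100% control, values from non-linear regression of dose-response curves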
[4] = SW480, Table 4, SW480 cells stably expressing Sp5-Luc reporter, 10-point dose-response from 10 μM, 36 to 48 hours

Chain of CLK2 kinase (P49760 whole entry): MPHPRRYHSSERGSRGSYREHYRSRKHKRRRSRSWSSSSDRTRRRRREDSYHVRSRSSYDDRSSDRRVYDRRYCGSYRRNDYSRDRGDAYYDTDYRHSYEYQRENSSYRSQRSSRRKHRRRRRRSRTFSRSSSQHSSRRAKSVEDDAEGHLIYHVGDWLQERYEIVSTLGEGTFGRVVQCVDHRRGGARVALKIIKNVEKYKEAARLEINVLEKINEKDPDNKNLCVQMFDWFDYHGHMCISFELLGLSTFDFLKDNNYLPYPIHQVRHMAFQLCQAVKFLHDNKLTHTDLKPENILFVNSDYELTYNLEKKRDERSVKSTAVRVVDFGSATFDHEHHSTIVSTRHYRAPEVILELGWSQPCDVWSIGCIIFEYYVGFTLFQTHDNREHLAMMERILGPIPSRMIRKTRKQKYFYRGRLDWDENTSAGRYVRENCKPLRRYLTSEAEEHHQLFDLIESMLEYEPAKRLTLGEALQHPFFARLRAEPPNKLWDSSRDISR
Chain of CLK3 kinase (P49761 whole entry): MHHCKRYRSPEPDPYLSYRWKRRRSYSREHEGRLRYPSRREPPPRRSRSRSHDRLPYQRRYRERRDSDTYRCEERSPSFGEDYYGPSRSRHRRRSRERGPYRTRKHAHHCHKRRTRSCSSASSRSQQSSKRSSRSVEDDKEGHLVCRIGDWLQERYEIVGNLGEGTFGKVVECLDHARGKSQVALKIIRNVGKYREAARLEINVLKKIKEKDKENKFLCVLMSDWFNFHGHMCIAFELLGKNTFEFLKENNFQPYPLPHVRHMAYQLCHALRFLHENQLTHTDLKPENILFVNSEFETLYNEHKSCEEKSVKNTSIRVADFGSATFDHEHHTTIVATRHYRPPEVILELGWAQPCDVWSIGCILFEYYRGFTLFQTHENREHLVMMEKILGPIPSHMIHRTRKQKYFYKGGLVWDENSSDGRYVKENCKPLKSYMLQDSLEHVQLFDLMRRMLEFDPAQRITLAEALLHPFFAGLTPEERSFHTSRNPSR

| SMILES | EC50 (CLK2 kinase) [µM] | EC50 [1] [nM] | EC50 [3, 4] [µM] | EC50 (CLK3 kinase) [µM] | Emax [1] [%] | EC50 [2] [µM] | Emax [2] [%] | EC50 ([3]; SW480) [µM] |
| --- | --- | --- | --- | --- | --- | --- | --- | --- |
| O=C(Nc1c[nH]nc1C(=O)Nc1cncc(-c2cccc(F)c2)c1)c1cncc(OC2CCNCC2)c1 [compound 14] | 0.01 |  | 1.6 | 4.3 | 89.5 | 0.339 | 71.9 |  |
| O=C(Nc1ccc(CN2CCCC2)cc1)c1n[nH]cc1/C=C/c1cccnc1 [compound 17] | 0.017 | 900 | 0.988 | 2.67 | 194 | 0.0037 | 64.7 |  |
| Fc1ccc(-c2nnc(-c3n[nH]cc3/C=C/c3cccnc3)o2)cc1 [compound 23] | 0.027 |  | 1.51 | 0.627 | 23.4 | ≥ 3 | 51.7 |  |
| CC(C)OCCCNC(=O)c1n[nH]c2ccc(-c3cccnc3)cc12 [compound 58] | 0.01 |  | 0.464 | 9.84 | 92.5 | 0.0108 | 61.1 |  |
| CC(C)NC(=O)c1n[nH]c2ccc(-c3cncc(CN4CCC(F)(F)CC4)c3)cc12 [compound 75] | 0.013 | 2700 | 0.0471 | 4.02 | 104 | 0.008 | 95.1 |  |
| O=C(Nc1cccnc1)c1n[nH]c2ccc(-c3cncc(CN4CC5CC(C4)O5)c3)cc12 [compound 101] | 0.001 | 900 |  | 0.044 | 121 | ≥ 3 | 45.7 | 0.067 |
| CC(C)Oc1ccc(NC(=O)c2n[nH]c3ccc(-c4cncc(CN5CC6CC(C5)O6)c4)cc23)cn1 [compound 102] | 0.002 | 30 |  | 0.088 | 75.7 | 0.0002 | 26.3 | 0.061 |
| O=C(Nc1cc2cc(-c3cncc(NC4CCNCC4)n3)ncc2cn1)C1CCOCC1 [compound 613] | 0.007 |  | 3.64 | 0.133 |  | 0.0466 | 51.4 |  |
| CC(C)n1cc(C(=O)Nc2cc3cc(-c4cncc(NC5CCN(C)CC5)n4)ncc3cn2)cn1 [compound 614] | 0.007 |  | 0.165 | 0.097 |  | ≥ 3 | 41.1 |  |
| CN1CCC(n2cc(C(=O)Nc3ncc4ccc(-c5cncc6[nH]ccc56)cc4n3)cn2)CC1 [compound 616] | 0.006 |  | 1.4 | 0.019 |  | ≥ 3 | 48.3 |  |

More lines, in order of falling EC50 (CLK2 kinase), values ahead:

| EC50 (CLK2 kinase) [µM] | EC50 [1] [nM] | EC50 [3, 4] [µM] | EC50 (CLK3 kinase) [µM] | SMILES | Emax [1] [%] | EC50 [2] [µM] | Emax [2] [%] | EC50 ([3]; SW480) [µM] |
| --- | --- | --- | --- | --- | --- | --- | --- | --- |
| 0.006 | 2700 | 0.0903 | 1.78 | CC(C)Oc1cncc(C(=O)Nc2c[nH]nc2C(=O)Nc2ccc(OC3CCN(C)CC3)nc2)c1 [compound 10] | 140 | 0.0015 | 46.9 |  |
| 0.006 |  | 2.22 | 6.02 | O=C(Nc1c[nH]nc1C(=O)Nc1ccc(N2CCC(F)(F)C2)nc1)c1cncc(OC2CCNCC2)c1 [compound 12] | 75.2 | 0.28 | 88.7 |  |
| 0.005 |  | 0.357 | 0.012 | CN1CC=C(c2cc(C(=O)Nc3cc4cc(-c5cncc(NC(C)(C)C)n5)cnc4cn3)ccn2)CC1 [compound 612] |  | ≥ 3 | 38.6 |  |
| 0.001 |  | 0.325 | 0.326 | CN1CCN(c2nccc3[nH]c(-c4n[nH]cc4/C=C/c4cncc(F)c4)nc23)CC1 [compound 25] | 39 | ≥ 3 | 91.9 |  |
| 0.001 | 2700 | 0.0821 | 0.492 | Fc1cccc(-c2cccc3[nH]c(-c4n[nH]cc4/C=C/c4cncc(CN5CCCC5)c4)nc23)c1 [compound 26] | 81.7 | 0.0014 | 64.6 |  |
